Assays:
Format in all cases: in vivo
[1] = system: ryegrass, Italian (Italian ryegrass, Lolium multiflorum); assay: Test D pre-/postemergence: ryegrass, Italian
How it was run: (§1)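 Species were sown in silt loam and sprayed preemergence, or grown in peat/vermiculite medium and sprayed postemergence at the 1- to 4-leaf stage (2–18 cm), with compounds in a surfactant-containing solvent. Injury was visually rated against untreated controls after 14–21 days, on a 0 (no effect) to 100 (complete control) scale.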

[2] = system: nightshade (eastern black nightshade, Solanum ptycanthum); assay: Test C pre-/postemergence: nightshade; conditions: Preemergence
How it was run: (§2)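 Preemergence on seeds in loam/sand, postemergence on 2–18 cm (1–4-leaf) plants in peat-based medium; compounds in non-phytotoxic solvent with surfactant. After 13–15 days in greenhouse, visual rating versus controls, 0 (no effect) to 100 (complete control).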

[3] = system: barley (winter barley, Hordeum vulgare); assay: Test C postemergence: barley
How it was run: (§3)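 Crop and weed plants were grown in peat-vermiculite medium and treated postemergence at the 1- to 4-leaf stage (2-18 cm tall). After 13-15 days in a greenhouse, each species was rated visually against untreated controls on a 0-100 scale (0 no effect, 100 complete control).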

[4] = system: surinam grass (Brachiaria decumbens); assay: Test C pre-/postemergence: surinam grass
How it was run: as §2

[5] = system: chamomile (scentless chamomile, Matricaria inodora); assay: Test D pre-/postemergence: chamomile
How it was run: as §1

[6] = system: deadnettle (henbit deadnettle, Lamium amplexicaule); assay: Test C postemergence: deadnettle
How it was run: as §3

[7] = system: Russian thistle (Salsola kali); assay: Test C pre-/postemergence: Russian thistle; conditions: Preemergence
How it was run: as §2

[8] = system: bromegrass, downy (downy bromegrass, Bromus tectorum); assay: Test C pre-/postemergence: bromegrass, downy
How it was run: as §2

[9] = Postemergence, 31 g ai/ha, scale 0 to 100 (0 no effect, 100 complete control)
[10] = Postemergence, 62 g ai/ha, scale 0 to 100 (0 no effect, 100 complete control)
[11] = Postemergence, 125 g ai/ha, scale 0 to 100, 0 no effect, 100 complete control
[12] = Postemergence, 8 g ai/ha, scale 0 to 100
[13] = Postemergence, 16 g ai/ha, scale 0 to 100
[14] = 31 g ai/ha, scale of 0 to 100, 0 is no effect, 100 is complete control
[15] = 62 g ai/ha, scale of 0 to 100, 0 is no effect, 100 is complete control
[16] = 125 g ai/ha, scale 0 to 100, 0 no effect, 100 complete control
[17] = 250 g ai/ha, scale 0 to 100, 0 no effect, 100 complete control
[18] = 31 g ai/ha, scale 0 to 100 (0 no effect, 100 complete control)
[19] = 62 g ai/ha, scale 0 to 100 (0 no effect, 100 complete control)
[20] = Postemergence, 250 g ai/ha, scale 0 to 100
[21] = Preemergence, 31 g ai/ha, scale of 0 to 100, 0 is no effect, 100 is complete control
[22] = Preemergence, 62 g ai/ha, scale of 0 to 100, 0 is no effect, 100 is complete control
[23] = Preemergence, 125 g ai/ha, scale 0 to 100, 0 no effect, 100 complete control
[24] = Preemergence, 250 g ai/ha, scale 0 to 100, 0 no effect, 100 complete control
[25] = Postemergence, 250 g ai/ha, scale 0 to 100 (0 no effect, 100 complete control)
[26] = Preemergence, 16 g ai/ha, scale 0 to 100 (0 no effect, 100 complete control)
[27] = Preemergence, 31 g ai/ha, scale 0 to 100 (0 no effect, 100 complete control)
[28] = Preemergence, 62 g ai/ha, scale 0 to 100
[29] = Preemergence, 125 g ai/ha, scale 0 to 100
[30] = Preemergence, 250 g ai/ha, scale 0 to 100
[31] = 31 g ai/ha, scale 0 (no effect) to 100 (complete control)
[32] = Preemergence, 31 g ai/ha, scale 0 (no effect) to 100 (complete control)

Q: With `Cc1nn(-c2ccc(F)c(F)c2)nc1Oc1ccnc(C(F)(F)F)c1` [Compound 145] as the compound, how does the “Plant response rating: Ryegrass, Italian” value [1, 9] read?
A: 10

Q: What about the “Plant response rating: Ryegrass, Italian” value [1, 10] of the same compound?
A: 15

Q: And the “Plant response rating: Ryegrass, Italian” value [1, 11]?
A: 30

Q: And the “Plant response rating, Ryegrass, Italian” value [1, 12]?
A: 0

Q: And the “Plant response rating, Ryegrass, Italian” value [1, 13]?
A: 0

Q: And the “Plant response rating, Nightshade” value [2, 14]?
A: 35

Q: What about the “Plant response rating, Nightshade” value [2, 15] of the same compound?
A: 80

Q: What about the “Plant response rating, Nightshade” value [2, 16] of the same compound?
A: 85

Q: And the “Plant response rating, Nightshade” value [2, 17]?
A: 90

Q: What about the “Plant response rating, Barley” value [3, 18] of the same compound?
A: 15

Q: What about the “Plant response rating, Barley” value [3, 19] of the same compound?
A: 20

Q: What about the “Plant response rating, Barley” value [3, 16] of the same compound?
A: 35

Q: What about the “Plant response rating, Barley” value ([3]; 250 g ai/ha, scale 0 to 100) of the same compound?
A: 45

Q: And the “Plant response rating, Surinam Grass” value [4, 9]?
A: 25

Q: And the “Plant response rating, Surinam Grass” value [4, 10]?
A: 30

Q: And the “Plant response rating, Surinam Grass” value [4, 11]?
A: 60

Q: And the “Plant response rating, Surinam Grass” value [4, 20]?
A: 75

Q: What about the “Plant response rating, Surinam Grass” value [4, 21] of the same compound?
A: 35

Q: And the “Plant response rating, Surinam Grass” value [4, 22]?
A: 55

Q: And the “Plant response rating, Surinam Grass” value [4, 23]?
A: 100

Q: What about the “Plant response rating, Surinam Grass” value [4, 24] of the same compound?
A: 100

Q: And the “Plant response rating: Chamomile” value [5, 9]?
A: 10

Q: What about the “Plant response rating: Chamomile” value [5, 10] of the same compound?
A: 10

Q: And the “Plant response rating: Chamomile” value [5, 11]?
A: 30

Q: And the “Plant response rating, Chamomile” value [5, 12]?
A: 0

Q: What about the “Plant response rating, Chamomile” value [5, 13] of the same compound?
A: 0

Q: And the “Plant response rating, Deadnettle” value [6, 18]?
A: 100

Q: And the “Plant response rating, Deadnettle” value [6, 19]?
A: 100

Q: What about the “Plant response rating, Deadnettle” value [6, 16] of the same compound?
A: 100

Q: What about the “Plant response rating, Deadnettle” value ([6]; 250 g ai/ha, scale 0 to 100) of the same compound?
A: 100

Q: And the “Plant response rating, Russian Thistle” value [7, 14]?
A: 0

Q: And the “Plant response rating, Russian Thistle” value [7, 16]?
A: 90

Q: And the “Plant response rating, Russian Thistle” value [7, 17]?
A: 95

Q: What about the “Plant response rating, Bromegrass, Downy” value [8, 9] of the same compound?
A: 5

Q: What about the “Plant response rating, Bromegrass, Downy” value [8, 10] of the same compound?
A: 10

Q: And the “Plant response rating, Bromegrass, Downy” value [8, 11]?
A: 20

Q: What about the “Plant response rating, Bromegrass, Downy” value [8, 20] of the same compound?
A: 25

Q: And the “Plant response rating, Bromegrass, Downy” value [8, 21]?
A: 5

Q: What about the “Plant response rating, Bromegrass, Downy” value [8, 22] of the same compound?
A: 20

Q: And the “Plant response rating, Bromegrass, Downy” value [8, 23]?
A: 70

Q: And the “Plant response rating, Bromegrass, Downy” value [8, 24]?
A: 85

Q: For `CCOc1nn(-c2ccc(F)cc2)nc1Cc1ccnc(C(F)F)c1` [Compound 195], which “Plant response rating: Ryegrass, Italian” value [1, 9] is on record?
A: 10

Q: And the “Plant response rating: Ryegrass, Italian” value [1, 10]?
A: 20

Q: What about the “Plant response rating: Ryegrass, Italian” value [1, 11] of the same compound?
A: 20

Q: What about the “Plant response rating: Ryegrass, Italian” value [1, 25] of the same compound?
A: 25

Q: And the “Plant response rating, Ryegrass, Italian” value [1, 13]?
A: 5

Q: And the “Plant response rating, Ryegrass, Italian” value [1, 26]?
A: 0

Q: What about the “Plant response rating, Ryegrass, Italian” value [1, 27] of the same compound?
A: 0

Q: What about the “Plant response rating, Ryegrass, Italian” value [1, 28] of the same compound?
A: 0

Q: And the “Plant response rating, Ryegrass, Italian” value [1, 29]?
A: 20

Q: And the “Plant response rating, Ryegrass, Italian” value [1, 30]?
A: 60

Q: What about the “Plant response rating, Nightshade” value [2, 31] of the same compound?
A: 60

Q: And the “Plant response rating, Nightshade” value [2, 15]?
A: 85

Q: What about the “Plant response rating, Nightshade” value [2, 16] of the same compound?
A: 95

Q: And the “Plant response rating, Nightshade” value [2, 17]?
A: 98

Q: What about the “Plant response rating, Barley” value [3, 18] of the same compound?
A: 15

Q: What about the “Plant response rating, Barley” value [3, 19] of the same compound?
A: 20

Q: And the “Plant response rating, Barley” value [3, 16]?
A: 35

Q: What about the “Plant response rating, Barley” value ([3]; 250 g ai/ha, scale 0 to 100) of the same compound?
A: 35

Q: And the “Plant response rating, Surinam Grass” value [4, 9]?
A: 30

Q: And the “Plant response rating, Surinam Grass” value [4, 10]?
A: 50

Q: And the “Plant response rating, Surinam Grass” value [4, 25]?
A: 60

Q: And the “Plant response rating, Surinam Grass” value [4, 32]?
A: 55

Q: And the “Plant response rating, Surinam Grass” value [4, 22]?
A: 75

Q: And the “Plant response rating, Surinam Grass” value [4, 23]?
A: 85

Q: And the “Plant response rating, Surinam Grass” value [4, 24]?
A: 98

Q: And the “Plant response rating: Chamomile” value [5, 9]?
A: 20

Q: And the “Plant response rating: Chamomile” value [5, 10]?
A: 20

Q: And the “Plant response rating: Chamomile” value [5, 11]?
A: 20

Q: And the “Plant response rating: Chamomile” value [5, 25]?
A: 50

Q: What about the “Plant response rating, Chamomile” value [5, 13] of the same compound?
A: 20

Q: What about the “Plant response rating, Chamomile” value [5, 26] of the same compound?
A: 0

Q: What about the “Plant response rating, Chamomile” value [5, 27] of the same compound?
A: 0

Q: What about the “Plant response rating, Chamomile” value [5, 28] of the same compound?
A: 100

Q: What about the “Plant response rating, Chamomile” value [5, 29] of the same compound?
A: 100

Q: And the “Plant response rating, Chamomile” value [5, 30]?
A: 100

Q: What about the “Plant response rating, Deadnettle” value [6, 18] of the same compound?
A: 100

Q: And the “Plant response rating, Deadnettle” value [6, 19]?
A: 100

Q: What about the “Plant response rating, Deadnettle” value [6, 16] of the same compound?
A: 100

Q: And the “Plant response rating, Deadnettle” value ([6]; 250 g ai/ha, scale 0 to 100)?
A: 100

Q: And the “Plant response rating, Russian Thistle” value [7, 31]?
A: 90

Q: And the “Plant response rating, Russian Thistle” value [7, 15]?
A: 90

Q: And the “Plant response rating, Russian Thistle” value [7, 16]?
A: 90

Q: What about the “Plant response rating, Russian Thistle” value [7, 17] of the same compound?
A: 90

Q: What about the “Plant response rating, Bromegrass, Downy” value [8, 9] of the same compound?
A: 15

Q: And the “Plant response rating, Bromegrass, Downy” value [8, 10]?
A: 30

Q: And the “Plant response rating, Bromegrass, Downy” value [8, 11]?
A: 50

Q: What about the “Plant response rating, Bromegrass, Downy” value [8, 20] of the same compound?
A: 60

Q: And the “Plant response rating, Bromegrass, Downy” value [8, 32]?
A: 15

Q: And the “Plant response rating, Bromegrass, Downy” value [8, 22]?
A: 45

Q: What about the “Plant response rating, Bromegrass, Downy” value [8, 23] of the same compound?
A: 85

Q: What about the “Plant response rating, Bromegrass, Downy” value [8, 24] of the same compound?
A: 90

Reference: patent US9302999B2, “Substituted triazoles as herbicides” (E. I. DU PONT DE NEMOURS AND COMPANY, priority 2012, dated 2016)
